This is an account of results in patent US20220081422A1 (Janssen Biotech, Inc., priority 2019, published 2022).

In one assay the target is T1, human DHODH (Homo sapiens, UniProt Q02127).
T1 construct: purchased Proteros PR-0044
Put plainly: DHODH enzymatic assay (DCIP absorbance, end-point). It counts as biochemical. The note with it: purified human DHODH, DCIP as final electron acceptor, end-point mode; read-out: hDHODH IC50. The protocol:
In vitro Assay: DHODH enzymatic assay
To detect DHODH enzyme activities, dichloroindophenol (DCIP) is added as the final electron acceptor in the assay. DCIP can accept electrons from the reduced coenzyme Q generated in the assay, or from dihydroorotate (DHO) via FMN by binding presumably to the ubiquinone pocket. […] The assay buffer contained […], pH 7.5, 150 mM NaCl, 0.5 mM EDTA, and 0.1% Triton X-100 in MilliQ water. Substrate consisting of 20 mM DHO, 5 mM CoQ6, and 1 mM DCIP in assay buffer, initiates the reaction. […] Absorbance measurements were obtained using the BMG Phera Star plate-reading spectrophotometer. Purified human DHODH was purchased from Proteros (cat. No. PR-0044). Chemicals were purchased from Sigma-Aldrich, Teknova, and Avanti Polar Lipids. Liquid handling was performed using Labcyte Echo and Formulatrix Tempest.

The next assay relates to MOLM-13 cells. Put plainly: MOLM-13 cellular assay (CellTiter-Glo cell viability). The assay is classed as cell-based. The note with it: 72 hours exposure, cell viability by CellTiter-Glo. The protocol:
In Vitro Assay: MOLM-13 Cellular Assay
MOLM-13 cells were obtained from DSMZ and were maintained in RPMI 1640+Glutamax+25 mM HEPES (Invitrogen, catalog number 72400) supplemented with 10% heat inactivated fetal bovine serum (FBS; Invitrogen, catalog number 16140). The day prior to assay set-up, cells were pelleted, resuspended in fresh media, counted, and cells were plated at 0.4×10^6 cell/mL in a T150 flask. On the day of the assay, cells were pelleted, resuspend in fresh media, counted and seeded at 5,000 cells/well in white opaque 96-well tissue culture treated microplates (Perkin Elmer, catalog number 6005680). Cells were exposed to different concentrations of test compounds at 37° C., 5% CO2 for 72 hours immediately after seeding. Cell viability was acquired on a Perkin Elmer Envision 2104 multilabel reader using the CellTiter-Glo assay (Promega) according to the manufacturer's instructions.
On the technique in general: In ATP-based viability assays light output follows the ATP content of the culture.

T1 sequence (Q02127 whole entry): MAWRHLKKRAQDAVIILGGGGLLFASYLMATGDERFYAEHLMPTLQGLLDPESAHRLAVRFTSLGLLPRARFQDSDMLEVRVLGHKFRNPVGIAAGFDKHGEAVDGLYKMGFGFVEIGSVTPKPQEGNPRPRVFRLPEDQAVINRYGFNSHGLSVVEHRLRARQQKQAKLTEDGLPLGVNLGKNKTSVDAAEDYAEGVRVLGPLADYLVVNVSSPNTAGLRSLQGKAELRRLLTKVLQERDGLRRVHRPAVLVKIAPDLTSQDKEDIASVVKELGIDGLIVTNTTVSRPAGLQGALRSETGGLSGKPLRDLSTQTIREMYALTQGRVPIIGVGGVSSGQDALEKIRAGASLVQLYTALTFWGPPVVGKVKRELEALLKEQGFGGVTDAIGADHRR

Consider `C=C(C1CN(c2c(F)cccc2Cl)C(=O)c2ccc(-n3nc(CO)n(CC)c3=O)cc21)C(F)(F)F` (racemic) [Example 73, Racemic 2-(2-Chloro-6-fluorophenyl)-6-(4-ethyl-3-(hydroxymethyl)-5-oxo-4,5-dihydro-1H-1,2,4-triazol-1-yl)-4-(3,3,3-trifluoroprop-1-en-2-yl)-3,4-dihydroisoquinolin-1(2H)-one], for which the 50% inhibitory concentration (IC50) – broadly, the midpoint of a concentration-inhibition curve – on human DHODH was 8 nM; with MOLM-13 cells (Homo sapiens, MOLM-13, 72 h) it was 12.2 nM.
Taken in the same sequence, the figures for `CC[C@H](C)[C@H]1CN(c2c(F)cccc2Cl)C(=O)c2cc(F)c(-n3nc(CO)n(CC)c3=O)cc21` (relative stereo) [Example 71, (R*)-4-((S *)-sec-B utyl)-2-(2-chloro-6-fluorophenyl)-6-(4-ethyl-3-(hydroxymethyl)-5-oxo-4,5-dihydro-1H-1,2,4-triazol-1-yl)-7-fluoro-3,4-dihydroisoquinolin-1(2H)-one] were 4 nM and 4.3 nM.
For `CC[C@@H](C)[C@H]1CN(c2c(F)cccc2Cl)C(=O)c2cc(F)c(-n3nc(CO)n(CC)c3=O)cc21` (relative stereo) [Example 72, (R*)-4-((R*)-sec-Butyl)-2-(2-chloro-6-fluorophenyl)-6-(4-ethyl-3-(hydroxymethyl)-5-oxo-4,5-dihydro-1H-1,2,4-triazol-1-yl)-7-fluoro-3,4-dihydroisoquinolin-1(2H)-one] the same measures were 5 nM and 6.57 nM.
In the case of `CCn1c(CO)nn(-c2cc3c(cc2F)C(=O)N(c2ccccc2Cl)CC3C(C)C)c1=O` (single isomer, unassigned) [Example 36, (S*)-2-(2-Chlorophenyl)-6-(4-ethyl-3-(hydroxymethyl)-5-oxo-4,5-dihydro-1H-1,2,4-triazol-1-yl)-7-fluoro-4-isopropyl-3,4-dihydroisoquinolin-1(2H)-one], the IC50 at human DHODH came out at 30 nM; with MOLM-13 cells it was 31.6 nM.
As to `CCn1c(CO)nn(-c2cc3c(cc2F)C(=O)N(c2ccccc2Cl)CC3C(C)C)c1=O` (single isomer, unassigned) [Example 37, (R *)-2-(2-Chlorophenyl)-6-(4-ethyl-3-(hydroxymethyl)-5-oxo-4,5-dihydro-1H-1,2,4-triazol-1-yl)-7-fluoro-4-isopropyl-3,4-dihydroisoquinolin-1(2H)-one], the IC50 on human DHODH worked out at 20 nM; with MOLM-13 cells, 15.5 nM.
Taken in the same sequence, the figures for `C=C(C)C1CN(c2cc(C)ccc2F)C(=O)c2cc(F)c(-n3nc(CO)n(CC)c3=O)cc21` (single isomer, unassigned) [Example 39, (S *)-6-(4-Ethyl-3-(hydroxymethyl)-5-oxo-4,5-dihydro-1H-1,2,4-triazol-1-yl)-7-fluoro-2-(2-fluoro-5-methylphenyl)-4-(prop-1-en-2-yl)-3,4-dihydroisoquinolin-1(2H)-one] were 20 nM and 14.1 nM.
On to `C=C(C)C1CN(c2cc(C)ccc2F)C(=O)c2cc(F)c(-n3nc(CO)n(CC)c3=O)cc21` (single isomer, unassigned) [Example 40, (R *)-6-(4-Ethyl-3-(hydroxymethyl)-5-oxo-4,5-dihydro-1H-1,2,4-triazol-1-yl)-7-fluoro-2-(2-fluoro-5-methylphenyl)-4-(prop-1-en-2-yl)-3,4-dihydroisoquinolin-1(2H)-one], for which the IC50 at human DHODH turned out to be 40 nM; with MOLM-13 cells, 52.9 nM.
For `C=C(C)C1CN(c2ccccc2C)C(=O)c2cc(F)c(-n3nc(CO)n(CC)c3=O)cc21` (single isomer, unassigned) [Example 41, (S*)-6-(4-Ethyl-3-(hydroxymethyl)-5-oxo-4,5-dihydro-1H-1,2,4-triazol-1-yl)-7-fluoro-4-(prop-1-en-2-yl)-2-(o-tolyl)-3,4-dihydroisoquinolin-1(2H)-one], the IC50 on human DHODH was determined as 1 nM; with MOLM-13 cells, 1.99 nM.
For `C=C(C)C1CN(c2ccccc2C)C(=O)c2cc(F)c(-n3nc(CO)n(CC)c3=O)cc21` (single isomer, unassigned) [Example 42, (R *)-6-(4-Ethyl-3-(hydroxymethyl)-5-oxo-4,5-dihydro-1H-1,2,4-triazol-1-yl)-7-fluoro-4-(prop-1-en-2-yl)-2-(o-tolyl)-3,4-dihydroisoquinolin-1(2H)-one], the IC50 on human DHODH is 4 nM; in the assay on MOLM-13 cells, 6.79 nM.
As to `C=C(C)C1CN(c2c(C)n[nH]c2Cl)C(=O)c2cc(F)c(-n3nc(CO)n(CC)c3=O)cc21` (single isomer, unassigned) [Example 48, (S*)-2-(5-Chloro-3-methyl-1H-pyrazol-4-yl)-6-(4-ethyl-3-(hydroxymethyl)-5-oxo-4,5-dihydro-1H-1,2,4-triazol-1-yl)-7-fluoro-4-(prop-1-en-2-yl)-3,4-dihydroisoquinolin-1(2H)-one], the figures for the half-maximal inhibitory concentration (IC50) at human DHODH and with MOLM-13 cells were 20 nM and 0.834 nM, respectively.
For `C=C(C)C1CN(c2c(C)n[nH]c2Cl)C(=O)c2cc(F)c(-n3nc(CO)n(CC)c3=O)cc21` (single isomer, unassigned) [Example 49, (R *)-2-(5-Chloro-3-methyl-1H-pyrazol-4-yl)-6-(4-ethyl-3-(hydroxymethyl)-5-oxo-4,5-dihydro-1H-1,2,4-triazol-1-yl)-7-fluoro-4-(prop-1-en-2-yl)-3,4-dihydroisoquinolin-1(2H)-one] the same measures were 10 nM and 2.28 nM.
For `CCn1c(CO)nn(-c2cc3c(cc2F)C(=O)N(c2c(C)cnc(OC)c2Cl)CC3C(C)C)c1=O` (single isomer, unassigned) [Example 66, (S*)-2-(3-Chloro-2-methoxy-5-methylpyridin-4-yl)-6-(4-ethyl-3-(hydroxymethyl)-5-oxo-4,5-dihydro-1H-1,2,4-triazol-1-yl)-7-fluoro-4-isopropyl-3,4-dihydroisoquinolin-1(2H)-one] the same measures were 2 nM and 2.96 nM.
On to `CCn1c(CO)nn(-c2cc3c(cc2F)C(=O)N(c2c(C)cnc(OC)c2Cl)CC3C(C)C)c1=O` (single isomer, unassigned) [Example 67, (R *)-2-(3-Chloro-2-methoxy-5-methylpyridin-4-yl)-6-(4-ethyl-3-(hydroxymethyl)-5-oxo-4,5-dihydro-1H-1,2,4-triazol-1-yl)-7-fluoro-4-isopropyl-3,4-dihydroisoquinolin-1(2H)-one], for which the 50% inhibitory concentration (IC50) at human DHODH was > 100 nM; in the assay with MOLM-13 cells it was 351 nM.
For `C=C(C)C1CN(c2c(F)cccc2Cl)C(=O)c2cc(F)c(-n3nc(CO)n(CC)c3=O)cc21` (single isomer, unassigned) [Example 68, (R*)-2-(2-Chloro-6-fluorophenyl)-6-(4-ethyl-3-(hydroxymethyl)-5-oxo-4,5-dihydro-1H-1,2,4-triazol-1-yl)-7-fluoro-4-(prop-1-en-2-yl)-3,4-dihydroisoquinolin-1(2H)-one] the same measures were 2 nM and 4.66 nM.
For `C=C(C)C1CN(c2c(F)cccc2Cl)C(=O)c2cc(F)c(-n3nc(CO)n(CC)c3=O)cc21` (single isomer, unassigned) [Example 69, (S*)-2-(2-Chloro-6-fluorophenyl)-6-(4-ethyl-3-(hydroxymethyl)-5-oxo-4,5-dihydro-1H-1,2,4-triazol-1-yl)-7-fluoro-4-(prop-1-en-2-yl)-3,4-dihydroisoquinolin-1(2H)-one], the IC50 at human DHODH is 0.3 nM; in the assay on MOLM-13 cells, < 1.69 nM.
For the molecule `CCC(C)C1CN(c2c(F)cccc2Cl)C(=O)c2cc(F)c(-n3nc(CO)n(CC)c3=O)cc21` (single isomer, unassigned) [Example 70, (S*)-4-((RS)-sec-butyl)-2-(2-chloro-6-fluorophenyl)-6-(4-ethyl-3-(hydroxymethyl)-5-oxo-4,5-dihydro-1H-1,2,4-triazol-1-yl)-7-fluoro-3,4-dihydroisoquinolin-1(2H)-one], the IC50 at human DHODH was 6 nM; in the assay with MOLM-13 cells (Homo sapiens, MOLM-13, 72 h) it was 14.5 nM.
For `C=C(C)[C@@H]1CN(c2c(C)cnc(OC)c2C)C(=O)c2cc(F)c(-n3nc(CO)n(CC)c3=O)cc21` (single isomer, unassigned; atropisomer 1) [Example 54, Atropisomer 1, (S*)-6-(4-Ethyl-3-(hydroxymethyl)-5-oxo-4,5-dihydro-1H-1,2,4-triazol-1-yl)-7-fluoro-2-(2-methoxy-3,5-dimethylpyridin-4-yl)-4-(prop-1-en-2-yl)-3,4-dihydroisoquinolin-1 (2H)-one], the values for the IC50 at human DHODH and in the assay with MOLM-13 cells were 20 nM and 2.2 nM, respectively.
Taken in the same sequence, the figures for `C=C(C)[C@H]1CN(c2c(C)cnc(OC)c2C)C(=O)c2cc(F)c(-n3nc(CO)n(CC)c3=O)cc21` (single isomer, unassigned; atropisomer 1) [Example 55, Atropisomer 1, (R *)-6-(4-Ethyl-3-(hydroxymethyl)-5-oxo-4,5-dihydro-1H-1,2,4-triazol-1-yl)-7-fluoro-2-(2-methoxy-3,5-dimethylpyridin-4-yl)-4-(prop-1-en-2-yl)-3,4-dihydroisoquinolin-1(2H)-one] were > 100 nM and 1160 nM.
